Results reported in the SangsterLogP compilation.

| logP | Compound |
| --- | --- |
| 4.22 | c1ccc(Cc2ccccc2)cc1 |
| 6.88 | c1ccc2c(c1)ccc1cc3c(ccc4ccccc43)cc12 |
| 5.54 | c1ccc(C2CCCCC2)cc1 |
| 8.7 | CCCCCCCCCCCCCCCCCCCl |
| 6.69 | CCCCCCCCCC |
| 3.22 | BrCC(Br)C(Br)CBr (centres undefined) |
| 8.92 | CCCCCCCCCCCCCCCCC |
| 4.15 | Brc1ccc(Br)s1 |
| 5.44 | C=C(C)CC(C)(C)C |
| 5.2 | CCCCC(CC)CCl (centres undefined) |
| 5.7 | C=CCCCCCCC=C |
| 3.1 | CCCCCCC(=O)OC |
| 5.83 | CC(C)CC(C)(C)C |

| Compound | logP |
| --- | --- |
| Clc1cc(Cl)c(-c2c(Cl)cc(Cl)cc2Cl)c(Cl)c1 | 6.39 |
